Test results: patent US6060481A, “Method for improving insulin sensitivity using an adenosine receptor antagonist” (priority 1999, dated 2000)

Tests used:
[1] = tested on: glucose uptake by individual tissues; test: In vivo tissue glucose uptake with 14C 2-deoxyglucose during clamp; design: species or system Zucker rats; settings: for Decrease in glucose uptake by adipose tissue: epididymal fat, normalized to wet weight
Procedure: In vivo glucose uptake by individual tissues was determined using [^14 C]-labeled 2-deoxyglucose (2-DG), as described previously in, for example, the Lang references cited above. Tissue-specific glucose uptake was determined between 140 and 180 min after the start of the euglycemic hyperinsulinemic clamp. A tracer amount of 2-DG (8 μCi/rat; Amersham, Arlington Heights, Ill.) was injected intravenously, and tissues obtained 40 min later. Prior to tissue collection, serial arterial blood samples (0.2 ml) were withdrawn into heparinized syringes, plasma deproteinized with perchloric acid and ^14 C-radioactivity determined. Thereafter, animals were anesthetized with sodium pentobarbital, exsanguinated, and selected tissues were excised to determine the intracellular accumulation of phosphorylated 2-DG.
During the hyperinsulinemic clamp, blood glucose concentrations were determined at 10-min intervals using the YSI glucose analyzer (Yellow Springs, Ohio). Glucose specific activity was determined on neutralized supernatants of deproteinized plasma as taught by Lang, Am. J. Physiol, 263 (Endocrinol. Metab. 26): E703-D711 (1992). Tissue samples (600-900 mg wet wt) were immersed in ice-cold 0.5 N PCA, homogenized, and centrifuged. The concentration of phosphorylated 2-DG in tissues was calculated as the difference between total ^14 C-radioactivity of the neutral extract and the ^14 C-radioactivity remaining after Somogyi treatment as described in detail by Lang CH, Dobrescu C, and Meszaros K., Metabolism 39:1096-1107 (1990).
Rates of whole body glucose appearance (Ra) and disappearance (Rd) are calculated using the steady-state equations of Steele, Ann. NY Acad. Sci., 82:420-430 (1959). The glucose metabolic clearance rate (MCR) is calculated by dividing the glucose Rd by the prevailing glucose concentration. Since the prevailing insulin levels during the hyperinsulinemic clamp completely suppress endogenous glucose production, the rate of whole body glucose disposal equals the exogenous glucose infusion rate. The increment in insulin-stimulated glucose uptake (IMGU) for each animals is calculated by subtracting the basal endogenous glucose Ra from the measured rate of glucose disposal determined during the last 40 min of the clamp. In vivo glucose uptake for each tissue examined is calculated based on the accumulation of phosphorylated 2-DG by a respective tissue, the integrated 2-DG:glucose ratio in the plasma during the 40-min labeling period, and the lumped constant as described by Lang, Endocrinology, 128:645-653 (1991).

insulin receptor kinase = test: Insulin receptor kinase assay of partially purified receptors from gastrocnemius of treated rats; type: in vivo, Zucker rats
Procedure: BWA1433 was administered as previously described, in a suspension of 7 mg/ml methyl cellulose containing 10 mg/ml BWA1433. BWA1433 was supplied as a free acid from Glaxo-Wellcome but was adjusted to pH 8.0 with NaOH prior to use. In this way, treated animals were given 12 mg/kg BWA1433 every 12 hours (±1 hour) for one week.
Insulin receptors were prepared from 100 mg frozen powdered skeletal muscle using lectin affinity chromatography, as taught by Caro, J. Clin. Invest., 79:1330-1337 (1987). Supernatants from detergent (Triton X-100) solubilized muscle were cycled over 0.3 ml bed volume wheat germ agglutinin agarose (WGA) columns, after which the columns were washed thoroughly overnight. The receptors were eluted in one ml of buffer containing 25 mM N-[2-hydroxyethyl]piperazine-N'-[2-ethanesulfonic acid] (HEPES) (pH 7.6), 55 mM NaCl, 11.25 mM KCI, 0.5 mM CaCl2, 0.5 mM MgCl2, 0.5 mM Na3 VO4, 5 mM NaF, 10% glycerol, 0.05% Triton X-100, and 300 mM-acetyl-D-glucosamine. WGA column eluates were aliquoted to avoid multiple freezing/thawing and were stored at -70° C. until use. Columns were thoroughly washed (50-100 bed volumes wash buffer) and reused. Receptors were quantitated by assaying protein and immunoblotting to specifically assess insulin receptor protein.
Insulin receptor kinase activity was determined using a modification of previously published techniques by Debant, et al., Am. […] Papers were blotted, oven-dried, and radioactivity determined by scintillation counting using a Beckman Model LS3801 scintillation counter. Activity was calculated in mUnits receptor kinase/mg of WGA eluate protein. […]
Insulin receptor kinase activity was measured 1) in the basal state in non-insulin-injected animals, 2) in insulin-injected animals without added insulin, and 3) in receptors isolated from insulin injected animals but stimulated in vitro with 1 μM exogenous insulin. […] Intravenous insulin-injection increased the observed activity of the insulin receptor kinase 7- to 12-fold when measured in the absence of insulin added in vitro (FIG. 4A). […]

[2] = Zucker rats; cited from earlier work
[3] = obese rats, one week treatment, clamp

For CCCn1c(=O)c2[nH]c(-c3ccc(C=CC(=O)O)cc3)nc2n(CCC)c1=O [BWA1433, 1,3-dipropyl-8-(p-acrylic)phenylxanthine], the “Glucose uptake under hyperinsulinemic conditions in heart” value ([1]; lean animals) was “unaffected”, the “Glucose uptake under hyperinsulinemic conditions in liver” value ([1]; lean animals) was “unaffected” and the “Decrease in glucose uptake by gastrocnemius” value ([1]; lean rats) was 16%. For the same molecule, the “Decrease in glucose uptake by soleus” value ([1]; lean rats) was 12%, the “Decrease in glucose uptake by adipose tissue” value ([1]; lean rats) was 48% and the “Change in glucose uptake in heart” value ([1]; obese rats) was “no significant change”. For the same molecule, the “Change in glucose uptake in liver” value ([1]; obese rats) was “no significant change”, the “Decrease in glucose uptake by adipose tissue” value ([1]; obese rats) was 54% and the “Increase in glucose uptake in gastrocnemius compared to vehicle-treated obese rats” value [1, 3] was 44%. The “Increase in glucose uptake in soleus compared to vehicle-treated obese rats” value [1, 3] was 47%, the “Reduction in glucose uptake by fat” value ([1]; on the basis of intracellular aqueous volume, both groups (lean, obese)) was “approximately 50%” and the “Insulin receptor kinase activity” value (insulin receptor kinase; lean rats, insulin in vivo plus 1 μM insulin in vitro) was “no significant influence”. The “Insulin receptor kinase activity” value (insulin receptor kinase; obese animals, insulin injected in vivo, no insulin added in vitro) was “small but significant increase”, the “Insulin receptor kinase activity” value (insulin receptor kinase; obese rats, insulin in vivo plus 1 μM insulin in vitro) was “increased” and the Glucose tolerance [2] was “improves glucose tolerance”.
